Where “and” joins values, the source holds several entries; their conditions need not be identical. Equal entries are not always repeated. Calls of active or inactive are those of the source.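 How the source made its calls: active means fitted curve falls past -35% activity change at a dose below twice the highest valid tested dose; inconclusive means no clear call, values can overlap the other calls; inactive means the rest, including activity opposite to the expected decrease.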
Tested on: not listed separately
Assay: A673 Ewing sarcoma cell viability loss – luminescence, retest at dose, dry powder, confirmation (AID 743478)
Details: A673 viability, CellTiter-Glo ATP luminescence, 72 h; at 1.6 µM (top of the series)

Structure (SMILES) | activity change, negative = cytotoxicity
CCN(CCO)CCCOc1ccc2c(Nc3cc(CC(=O)Nc4cccc(F)c4)[nH]n3)ncnc2c1 | -35.3% (inactive)

Same assay, conditions: A673 viability, CellTiter-Glo ATP luminescence, 72 h; at 6 µM (top of the series)

Structure (SMILES) | activity change, negative = cytotoxicity
Clc1ccc(-c2cnc3ccc(-c4ccccc4)cn23)cc1 | 1.33% (inactive)

Same assay, conditions: A673 viability, CellTiter-Glo ATP luminescence, 72 h; at 12 µM (top of the series)

Structure (SMILES) | activity change, negative = cytotoxicity
COc1ccc(NC(=O)Nc2ccc3c(c2)C(=O)N([C@@H](C)CO)C[C@H](C)[C@H](CN(C)Cc2ccc4c(c2)OCO4)O3)cc1 | -32.3% (inactive)

Same assay, conditions: A673 viability, CellTiter-Glo ATP luminescence, 72 h; at 26 µM (top of the series)

Structure (SMILES) | activity change, negative = cytotoxicity
C[C@]1(c2nc3c(C(N)=O)cccc3[nH]2)CCCN1 | -26% (inactive)
COc1ccc(-c2cc(NC(C)=O)c3ncc(-c4ccc(OC)c(OC)c4)n3c2)cc1 | -6.5% (inactive)
CN1c2ccc(-c3ccc(C#N)cc3)cc2[C@H]2[C@H](CCN2S(=O)(=O)c2ccc(F)cc2)[C@H]1CO | -15.2% (inactive)
COc1ccc(C2CNC(=O)C2)cc1OC1CCCC1 (configuration not stated) | -1.09% (inactive)
COc1ccc(C2=Nn3c(nnc3-c3ccccc3)SC2)cc1OC | -5.89% (inactive)
COc1ccc(CNc2nc(N3CCC[C@H]3CO)ncc2C(=O)NCc2ncccn2)cc1Cl | 0.28% (inactive)
CCC(C)(C)C(=O)O[C@H]1C[C@@H](C)C=C2C=C[C@H](C)[C@H](CC[C@@H]3C[C@@H](O)CC(=O)O3)[C@H]21 | -7.51% (inactive)
O=C(Nc1c(Cl)cncc1Cl)c1ccc(OC(F)F)c(OCC2CC2)c1 | 7.47% (inactive)
COc1ccc(C2C(C#N)=C(N)Oc3cc(N)ccc32)cc1 (configuration not stated) | -1.79% (inactive)
N#CC1=C(N)Oc2cc(N)ccc2C1c1ccc(Cl)cc1 (configuration not stated) | 0.262% (inactive)
Cc1ccc(C2C(C#N)=C(N)Oc3cc(N)ccc32)cc1 (configuration not stated) | -0.754% (inactive)
COc1ccccc1C1C(C#N)=C(N)Oc2cc(N)ccc21 (configuration not stated) | -4.28% (inactive)

Same assay, conditions: A673 viability, CellTiter-Glo ATP luminescence, 72 h; at 50 µM (top of the series)

Structure (SMILES) | activity change, negative = cytotoxicity
O=P1(NCCCl)OCCCN1CCCl (configuration not stated) | 0.494% (inactive)

Tested on: A673 viability, CellTiter-Glo ATP luminescence, 72 h
Assay: as above
Details: not given

Structure (SMILES) | AC35
COc1ccccc1-c1nnc2n1N=C(c1ccc3c(c1)OCO3)CS2 | 0.0164 µM
CN(C)c1ccc2c(c1)OC(N)=C(C#N)C2c1cccc(F)c1 (configuration not stated) | 0.0177 µM
C[C@@]1(C(=O)Nc2ccc(F)nc2)CCCN1c1nc(Nc2cc(C3CC3)[nH]n2)c2cccn2n1 | 0.296 µM
COc1cccc(S(=O)(=O)N2CC[C@@H]3[C@@H](CO)Nc4ccc(-c5ccc(C#N)cc5)cc4[C@@H]32)c1 | 21.4 µM
O=C(c1cc(Cc2n[nH]c(=O)c3ccccc23)ccc1F)N1CCN(C(=O)C2CC2)CC1 | 3.97 µM
Nc1ccn([C@@H]2O[C@H](CO)[C@H](O)C2O)c(=O)n1 (some centres not stated) | 0.066 µM
Cc1cc(Nc2cc(N3CCN(C)CC3)nc(Sc3ccc(NC(=O)C4CC4)cc3)n2)n[nH]1 | 0.271 µM
CCOC(=O)CCNc1cc(N2CCc3ccccc3CC2)nc(-c2ccccn2)n1 | 14.8 µM
CCCCc1ccc2nc(NC(=O)OC)[nH]c2c1 | < 0.05 µM
N#CC1=C(N)Oc2cc(N)ccc2C1c1cccc(F)c1 (configuration not stated) | 0.907 µM
Cc1c([C@H](C(Cl)Cl)[C@H](O)[C@H]2C[C@H](C)C(=O)O2)ccc2c1C(=O)[C@H]1[C@H]2C[C@@H](Br)[C@@]23O[C@@H](CO[C@H]2O)C[C@]13C | < 0.05 µM
CN(C(=O)CCCOc1ccc2[nH]c(=O)ccc2c1)C1CCCCC1 | 20.7 µM
Cc1cccc(C2C(C#N)=C(N)Oc3cc(N)ccc32)c1 (configuration not stated) | 0.486 µM
COc1ccc(C(=O)CC2(O)C(=O)Nc3c(Cl)ccc(Cl)c32)cc1 (configuration not stated) | 2.25 µM
COc1ccc(-c2ccc3c(c2)[C@H]2[C@H](CCN2S(=O)(=O)c2ccc(OC)cc2)[C@@H](CO)N3)cc1 | 3.95 µM
COc1ccc(C2=Nn3c(nnc3-c3ccccc3F)SC2)cc1OC | 3.18 µM
Cc1ccccc1C1C(C#N)=C(N)Oc2cc(N)ccc21 (configuration not stated) | 13.1 µM
COc1ccc(S(=O)(=O)N2CC[C@@H]3[C@@H](CO)Nc4ccc(-c5cccc(C#N)c5)cc4[C@@H]32)cc1 | 3.95 µM
N#CC1=C(N)Oc2ccc3ccccc3c2C1c1cccc(F)c1 (configuration not stated) | 0.526 µM
COc1cc([C@@H]2c3cc4c(cc3[C@@H](O[C@@H]3O[C@@H]5CO[C@@H](C)O[C@H]5[C@H](O)[C@H]3O)[C@H]3COC(=O)[C@H]23)OCO4)cc(OC)c1O | 0.751 µM
N#CC1=C(N)Oc2cc(OC(=O)c3ccccc3)ccc2C1c1cccc(Br)c1 (configuration not stated) | 2.46 µM

Structure (SMILES) | AC35
CC(C)(O)CCc1ccc(O)c2c(=O)c3c(O)c4c(cc3oc12)O[C@H]1OC=C[C@@]41O | 0.0326 µM
N#CC1=C(N)Oc2cc(O)ccc2C1c1cccc(Br)c1 (configuration not stated) | 1.84 µM
CCC(C)C(=O)OC1CC(C)C=C2C=CC(C)C(CCC(O)CC(O)CC(=O)O)C21 (configuration not stated) | 25.2 µM
COc1ccc(OC)c(-c2nnc3n2N=C(c2ccc(OC)c(OC)c2)CS3)c1 | < 0.0235 µM and 0.0163 µM
COc1ccc(S(=O)(=O)N(C(C)=O)c2ccc(OC(C)=O)c3ccccc23)cc1[N+](=O)[O-] | 0.46 µM
CC1(C)CC(c2nc(-c3ccc4ccc(-c5ccccc5)nc4c3)c3c(N)nccn23)C1 | 2.02 µM
N#CC1=C(N)Oc2cc(N)ccc2C1c1cccc(Br)c1 (configuration not stated) | 0.104 µM
CC[C@@]1(O)C(=O)OCc2c1cc1n(c2=O)Cc2cc3c(CN(C)C)c(O)ccc3nc2-1 | 0.0166 µM
Nc1ncnc2c1c(-c1cccc(OCc3ccccc3)c1)cn2C1CC(CN2CCCC2)C1 (configuration not stated) | 3.76 µM
CN1c2ccc(-c3ccc(C#N)cc3)cc2[C@H]2[C@H](CCN2S(=O)(=O)c2cccc(F)c2)[C@H]1CO | 3.65 µM
COc1cc(C2C(C#N)=C(N)Oc3cc(N(C)C)ccc32)cc2c1OCO2 (configuration not stated) | 0.0823 µM
COc1ccccc1S(=O)(=O)N1CC[C@@H]2[C@@H](CO)Nc3ccc(-c4ccc(C#N)cc4)cc3[C@@H]21 | 11.6 µM
CC(C)N1c2ccccc2C(c2ccc(F)cc2)C1/C=C/C(O)CC(O)CC(=O)O (configuration not stated) | 1.42 µM
Cc1ccc(S(=O)(=O)N2CC[C@@H]3[C@@H](CO)Nc4ccc(-c5ccc(C#N)cc5)cc4[C@@H]32)cc1 | 19.8 µM
Cc1ccc([N+](=O)[O-])cc1S(=O)(=O)N(C)C | 3.97 µM
COc1ccc(-c2ccc3c(c2)[C@H]2[C@H](CCN2S(=O)(=O)c2ccc(OC)cc2)[C@@H](CO)N3C)cc1 | 3.42 µM
COc1ccc(C2=Nn3c(nnc3-c3ccccc3OC)SC2)cc1OC | 0.0556 µM
COc1ccc(S(=O)(=O)N2CC[C@@H]3[C@@H](CO)N(C)c4ccc(-c5ccc(F)cc5)cc4[C@@H]32)cc1 | 3.08 µM
N#CC1=C(N)Oc2cc(N)ccc2C1c1ccc2ccccc2c1 (configuration not stated) | 11.9 µM
CCc1c2c(nc3ccc(O)cc13)-c1cc3c(c(=O)n1C2)COC(=O)C3(O)CC (configuration not stated) | 0.002 µM
N#CC1=C(N)Oc2cc(N)ccc2C1c1ccccc1Cl (configuration not stated) | 12.3 µM

Structure (SMILES) | AC35
Clc1ccccc1-c1nnc2n1N=C(c1ccc3c(c1)OCO3)CS2 | 0.408 µM
COc1ccc(S(=O)(=O)N2CC[C@@H]3[C@@H](CO)Nc4ccc(-c5ccc(C#N)cc5)cc4[C@@H]32)cc1 | 4.03 µM
N#CC1=C(N)Oc2cc(N)ccc2C12C(=O)Nc1ccc(Br)cc12 (configuration not stated) | 18.9 µM
O=C(Cc1ccc(-c2ccc(OCCN3CCOCC3)cc2)cn1)NCc1ccccc1 | < 0.0235 µM
N#Cc1ccc(-c2ccc3c(c2)[C@H]2[C@H](CCN2S(=O)(=O)c2cccc(F)c2)[C@@H](CO)N3)cc1 | 5.43 µM
COc1ccccc1-c1nnc2n1N=C(c1ccc(O)c(O)c1)CS2 | 0.807 µM
CC[C@]1(O)CC2CN(CCc3c([nH]c4ccccc34)[C@@](C(=O)OC)(c3cc4c(cc3OC)N(C=O)[C@H]3[C@@](O)(C(=O)OC)[C@H](OC(C)=O)[C@]5(CC)C=CCN6CC[C@]43[C@@H]65)C2)C1 (some centres not stated) | < 0.0015 µM
COc1ccc(-c2cc(NC=O)c3ncc(-c4ccc(OC)c(OC)c4)n3c2)cc1 | 0.545 µM
COc1ccc(S(=O)(=O)N2CC[C@@H]3[C@H](CO)Nc4ccc(-c5ccc(C#N)cc5)cc4[C@@H]32)cc1 | 6.54 µM
C=C([C@@H](O)[C@@H](C)O)[C@@H](OC)[C@]1(C)Cc2cc3cc(O[C@H]4CC(OC5CC(O)C(O)C(C)O5)C(O)C(C)O4)cc(O)c3c(O)c2C(=O)[C@H]1OC1CC(OC2CC(OC3CC(C)(O)C(O)C(C)O3)C(O)C(C)O2)C(O)C(C)O1 (some centres not stated) | 0.0368 µM
N#CC1=C(N)Oc2cc(N)ccc2C1c1ccccc1 (configuration not stated) | 12.2 µM
COc1ccc(C2=Nn3c(nnc3-c3ccccc3Cl)SC2)cc1OC | 0.392 µM
COc1cccc2c1C(=O)c1c(O)c3c(c(O)c1C2=O)C[C@@](O)(C(=O)CO)C[C@@H]3O[C@H]1C[C@H](N)[C@H](O)[C@H](C)O1 | < 0.05 µM
N#Cc1ccc(-c2ccc3c(c2)[C@H]2[C@H](CCN2S(=O)(=O)c2ccccc2F)[C@@H](CO)N3)cc1 | 12.5 µM
CN1CCN(CCOc2cc(OC3CCOCC3)c3c(Nc4c(Cl)ccc5c4OCO5)ncnc3c2)CC1 | 22 µM
N#CC1=C(N)Oc2cc3c(cc2C1c1cccc(Br)c1)OCO3 (configuration not stated) | 0.0288 µM
Cc1nc(Nc2ncc(C(=O)Nc3c(C)cccc3Cl)s2)cc(N2CCN(CCO)CC2)n1 | 5.45 µM
COc1cccc(C2C(C#N)=C(N)Oc3cc(N)ccc32)c1 (configuration not stated) | 0.444 µM
Cn1cc(-c2ccncc2)c(-c2ccc(OCc3ccc4ccccc4n3)cc2)n1 | 21.3 µM
